The source of these data is patent US20260191889A1, “TREHALOSE FOR TREATING HUNTINGTON'S DISEASE” (GLD Debt Acquisition 2025-1, priority 2022, published 2026).

Common to all, as to type: in vivo, Mus musculus
The test system of assay [1] is EM48 (huntingtin protein; mHTT aggregates). The assay can be described thus: EM48 immunohistochemistry in brain of R6/2 mice. The following applies: MT-treated vs untreated transgenic R6/2 mice. Here is the method:
(§1) Cryosectioning—Cryosectioning was performed to striatal (left hemisphere) (Bregma +1.30 mm to −0.8 mm from Bregma, containing the infusion site at +0.5 mm) region and sections were collected as 20 μm thick sections on slides. A series of sections consisted of 8 sections with an interval of 300 μm in-between each section. A total of 5 series were collected from the target region using subsequent slides. For phase I, Series 1 & 3 were used for IHC analysis of EM48, series 2 was used for Darpp-32, series 4 was used for Iba1+GFAP and Series 5 was used for piloting and negative controls. For phase II, A total of 6 series were collected from the target region using subsequent slides. Series 1 was used for IHC analysis of EM48, series 2 was used for Darpp-32, series 4 was used for Iba1+GFAP. Series 5 was collected as spare samples and series 6 was used for piloting and negative controls. […]
(§2) Antigen expression analyses—The stained sections were scanned with the Olympus VS120 slide scanner using the proper fluorescent or brightfield channels. The regions of interest (ROIs) (striatum/cortex) were analyzed for positive immunostaining of the respective targets (EM48, DARPP-32, GFAP and Iba1) applying the VIS—Visiopharm Integrator System (Visiopharm, Denmark).
(§3) Positive staining of the respective antigens was detected by applying a suitable threshold which recognizes only truly positive staining. […]

Assay [2] concerns GFAP. The assay can be described thus: GFAP immunohistochemistry in brain of R6/2 mice. The conditions noted are these: MT-treated vs untreated transgenic R6/2 mice, FIG. 4. The procedure:
as §1, with “Iba1+GFAP.” for “Iba1+GFAP. Series 5 was collected as spare samples and series 6 was used for piloting and negative controls.”
For fluorescence immunohistochemistry (GFAP and Iba-1) the following general protocol was applied: […]
as §2, §3

Assay [3] has as its system transgenic R6/2 mice (a disease model for Huntington's Disease). Description: Lifespan of R6/2 mice after treatment with MT. The following applies: MT 5 g/kg i.p. 5 times per week from 4 weeks of age, vehicle 101, wild-type 181. Here is the method: The objective of this study was to assess the effects of molecular trehalose (MT) in the R6/2 mouse model of Huntington's disease through intraperitoneal (IP) injections. Treated mice […] were administered (i.e. dosed) with a MT intraperitoneal (i.p.) injection. Mice were weighed twice per week until 8 weeks post infusion i.e., 12 weeks of age or followed until survival. At a minimum of 8 weeks post infusion or MT dosing, mice were sacrificed 30 minutes after last MT, and the following tissues were collected: blood, brain, and tail. Immunohistochemistry analysis for GFAP, Iba1, EM-47 and Darpp-32 were performed on brain hemisphere 1 samples and the amount of MT in blood and brain hemisphere 2 samples was determined.
Male R6/2 (B6CBA-Tg(HDexon1)62Gpb/3J) (The Jackson Laboratory, USA, JAX stock: 006494) mice (Mus musculus) between the ages of 28-33 days were used in this study. […]
Eleven male mice were treated with trehalose 5 g/kg (i.p. injection, 25 ml/kg, trehalose dose formulation concentration: 0.2 g/ml, with active trehalose corresponding to 5.252 g/kg of trehalose dihydrate), 5 times per week starting at 4 weeks of age. […] Mice were euthanized at 8 weeks after first trehalose dose (12 weeks of age, n=8). n=3 mice/group were monitored until survival. […]

For `OC[C@H]1O[C@H](O[C@H]2O[C@H](CO)[C@@H](O)[C@H](O)[C@H]2O)[C@H](O)[C@@H](O)[C@@H]1O` [MT, trehalose], the “levels of EM48 in the cortex (IHC, positive cells/mm^2)” value in assay [1] (FIG. 2) is “lower levels”. For the same molecule, in assay [1] (FIG. 3), the “levels of EM48 in the striatum (IHC, positive cells/mm^2)” value is on record as “lower levels”. For the same molecule, the “levels of GFAP in the striatum (IHC, % staining area)” value in assay [2] is “lower levels”. This molecule came in with a median lifespan in assay [3] of 119 days.
